Test results reported in PMC6028718, “Lanthanide-Dependent Methanol Dehydrogenases of XoxF4 and XoxF5 Clades Are Differentially Distributed Among Methylotrophic Bacteria and They Reveal Different Biochemical Properties” (Frontiers in Microbiology, 2018).

Tested on: T1, XoxF5
T1 construct: His-tagged, expressed in native host Methylomonas sp; LW13 (wild-type) grown with Ce3+; Ni-NTA purified
Assay: PMS-mediated DCPIP reduction at […] nm
Type: biochemical
Details: pH 9.0, 45 mM NH4Cl, ~26°C, 1 mM PMS, 150 μM DCPIP; Ce3+-grown enzyme; read-out: Methylomonas sp. LW13 XoxF5 / Km

Compound	Km [µM]
CCCCO [Butanol]	96 ± 70
CCO [Ethanol]	85 ± 44
CCCCCCO [Hexanol]	40 ± 37
CO [Methanol]	39 ± 11
